According to ChEMBL document CHEMBL1201862, “PubChem BioAssay data set” (2004):
Calls of active or inactive are those of the source.

Experiments:
[1] = target: Mucolipin-3 (Homo sapiens, UniProt Q8TDD5); assay: Dose response cell-based high-throughput screening assay for agonists of the transient receptor potential channel ML3 (TRPML3). [Related pubchem assays: 1526, 1424, 1448 ]; assay type: functional
[2] = target: Ion channel NompC (Danio rerio, UniProt Q7T1G6); assay: Fluorescence counterscreen assay for TRPML3 agonists: dose response cell-based high-throughput screening assay to identify agonists of the transient receptor potential channel N1 (TRPN1). [Related pubchem assays: 1526, 1424, 1448 ]; assay type: functional
[3] = target: T1, Corticotropin-releasing factor receptor 2/Corticotropin-releasing factor-binding protein (Homo sapiens, UniProt P24387+Q13324); assay: Dose Response confirmation of uHTS hits for small molecule antagonists of the CRF-binding protein and CRF-R2 receptor complex.; assay type: functional; settings: read-out: IC50_Mean
T1 sequence (Q13324 whole entry): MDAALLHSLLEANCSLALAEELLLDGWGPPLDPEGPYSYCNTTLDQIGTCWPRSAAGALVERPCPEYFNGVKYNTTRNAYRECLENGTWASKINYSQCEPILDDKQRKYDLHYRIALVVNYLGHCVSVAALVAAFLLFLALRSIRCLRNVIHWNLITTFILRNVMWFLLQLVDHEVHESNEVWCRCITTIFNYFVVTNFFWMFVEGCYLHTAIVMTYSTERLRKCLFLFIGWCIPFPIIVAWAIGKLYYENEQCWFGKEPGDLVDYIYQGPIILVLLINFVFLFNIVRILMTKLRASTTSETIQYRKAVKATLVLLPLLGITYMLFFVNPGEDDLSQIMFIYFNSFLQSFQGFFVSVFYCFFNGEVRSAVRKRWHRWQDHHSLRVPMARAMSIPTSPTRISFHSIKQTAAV
T1 sequence (P24387 whole entry): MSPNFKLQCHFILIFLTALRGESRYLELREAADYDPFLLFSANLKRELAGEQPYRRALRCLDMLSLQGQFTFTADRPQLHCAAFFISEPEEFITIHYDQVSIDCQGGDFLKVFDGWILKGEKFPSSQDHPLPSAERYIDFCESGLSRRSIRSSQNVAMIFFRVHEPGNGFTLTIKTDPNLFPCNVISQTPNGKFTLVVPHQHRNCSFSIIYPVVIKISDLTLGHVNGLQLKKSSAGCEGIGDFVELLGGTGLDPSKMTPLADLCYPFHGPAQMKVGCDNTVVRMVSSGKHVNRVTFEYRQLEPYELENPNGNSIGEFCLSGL

[4] = target: T1, Corticotropin-releasing factor receptor 2/Corticotropin-releasing factor-binding protein; assay: activators of CRF receptor 2 with binding protein – uHTS hits, confirmation (AID 602473); assay type: functional; settings: read-out: EC50_Mean
[5] = CRF-BP/CRF-R2 complex antagonists, dose response, cell-based, uHTS hits, 384-well (AID 651639); assay type: functional, Homo sapiens; settings: read-out: IC50_Mean
[6] = target: T2, Estrogen receptor (Homo sapiens, UniProt P03372); assay: potentiators of ERα–SRC-1 coactivator binding, dose response, biochemical, TR-FRET, ERα LBD (AID 737)
T2 sequence (P03372 whole entry): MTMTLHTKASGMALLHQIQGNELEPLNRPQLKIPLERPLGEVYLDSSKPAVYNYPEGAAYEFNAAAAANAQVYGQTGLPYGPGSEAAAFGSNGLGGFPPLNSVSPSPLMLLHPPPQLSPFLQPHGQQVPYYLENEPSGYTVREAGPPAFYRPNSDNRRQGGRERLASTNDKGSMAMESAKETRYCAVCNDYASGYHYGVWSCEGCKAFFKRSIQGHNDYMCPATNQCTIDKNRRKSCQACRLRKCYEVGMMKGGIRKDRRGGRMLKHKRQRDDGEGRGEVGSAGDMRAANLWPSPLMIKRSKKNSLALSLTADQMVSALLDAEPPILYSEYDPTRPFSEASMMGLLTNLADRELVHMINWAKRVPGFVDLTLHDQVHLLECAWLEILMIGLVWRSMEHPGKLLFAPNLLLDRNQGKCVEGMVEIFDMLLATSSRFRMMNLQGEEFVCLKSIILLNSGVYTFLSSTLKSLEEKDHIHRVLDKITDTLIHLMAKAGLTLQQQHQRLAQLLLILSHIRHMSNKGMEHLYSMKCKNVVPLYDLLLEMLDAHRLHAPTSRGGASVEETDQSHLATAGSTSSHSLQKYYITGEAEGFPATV

[7] = target: T3, Voltage-gated N-type calcium channel alpha-1B subunit/Amyloid beta A4 precursor protein-binding family A member 1 (Homo sapiens, UniProt Q00975+Q02410); assay type: protein assay
[8] = target: T4, Mannose-6-phosphate isomerase (Homo sapiens, UniProt P34949); assay: inhibitors of human PMI, primary screen, biochemical, fluorescence intensity, coupled assay (AID 1209)
T4 sequence (P34949 whole entry): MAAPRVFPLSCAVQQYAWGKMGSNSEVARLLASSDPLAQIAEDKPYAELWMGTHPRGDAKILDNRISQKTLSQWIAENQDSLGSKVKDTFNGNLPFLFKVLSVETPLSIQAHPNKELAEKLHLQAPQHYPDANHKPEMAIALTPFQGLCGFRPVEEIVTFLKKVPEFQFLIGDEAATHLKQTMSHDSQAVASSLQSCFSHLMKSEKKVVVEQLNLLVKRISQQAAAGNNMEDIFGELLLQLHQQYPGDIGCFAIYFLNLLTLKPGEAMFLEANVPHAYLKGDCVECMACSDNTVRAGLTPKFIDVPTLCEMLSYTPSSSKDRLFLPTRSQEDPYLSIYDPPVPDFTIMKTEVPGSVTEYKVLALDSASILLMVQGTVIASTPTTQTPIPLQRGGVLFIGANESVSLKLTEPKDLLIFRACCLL

[9] = target: T3, Voltage-gated N-type calcium channel alpha-1B subunit/Amyloid beta A4 precursor protein-binding family A member 1; assay type: protein assay; remark: listed apart in the source
[10] = target: Glucose-6-phosphate 1-dehydrogenase (Homo sapiens, UniProt P11413); assay: human G6PD enzyme inhibitors, dose response, selectivity assay for P. falciparum G6PD inhibitor project, biochemical, fluorescence (AID 504792); assay type: functional
[11] = tested on: Vero; assay: host cell cytotoxicity of antiviral hits, dose response, cytotoxicity control for West Nile virus antiviral project, secondary assay (AID 1650); assay type: functional; settings: Chlorocebus sabaeus
[12] = HIV-1 Env-mediated cell fusion inhibitors, dose response, CCR5-tropic Env (AID 2279); assay type: functional
[13] = target: Genome polyprotein (dengue virus type 2, UniProt P29990); assay: Dengue-2 NS5 methyltransferase inhibitors, primary screen, biochemical, confirmation dose response (AID 588689); assay type: functional
[14] = target: Sphingosine 1-phosphate receptor 2 (Homo sapiens, UniProt O95136); assay: Dose Response Cell Based Assay for Agonists of the S1P2 Receptor of Purchased Analogues. [Related pubchem assays: 729, 843, 854, 736 ]; assay type: functional
[15] = inhibitors of Bluetongue virus cytopathic effect, confirmation, arbovirus, BSR cells (AID 1250); assay type: functional;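 further: protection from viral cytopathic effect measured as cell viability by ATP luminescence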
[16] = Luminescence Cell-Based Dose Confirmation HTS to Identify Inhibitors of Polyadenylation.; assay type: functional
[17] = target: T5, Dual specificity protein phosphatase 6 (Rattus norvegicus, UniProt Q64346); assay: MKP-3 phosphatase inhibitors, primary screen, biochemical, rat enzyme, in vitro (AID 425)
T5 sequence (Q64346 whole entry): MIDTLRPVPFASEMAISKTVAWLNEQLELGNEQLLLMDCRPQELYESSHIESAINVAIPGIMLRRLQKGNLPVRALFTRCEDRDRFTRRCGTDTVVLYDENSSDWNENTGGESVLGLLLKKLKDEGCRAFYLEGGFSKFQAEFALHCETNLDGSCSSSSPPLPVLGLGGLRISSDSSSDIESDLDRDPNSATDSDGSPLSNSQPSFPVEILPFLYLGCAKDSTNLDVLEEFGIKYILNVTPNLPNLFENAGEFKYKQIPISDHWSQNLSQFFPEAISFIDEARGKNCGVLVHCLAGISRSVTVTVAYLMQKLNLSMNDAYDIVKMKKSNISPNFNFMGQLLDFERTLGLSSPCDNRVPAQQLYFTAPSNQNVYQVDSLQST

[18] = A High Throughput Confirmatory Assay used to Identify Novel Compounds that Inhibit Mycobacterium Tuberculosis in the absence of Glycerol.; assay type: functional
[19] = microbe, parasite or virus in culture; assay type: functional; settings: Mycobacterium tuberculosis
[20] = target: Heat shock protein HSP 90-alpha (Homo sapiens, UniProt P07900); assay type: functional, organism-based
[21] = target: Protein-tyrosine kinase 2-beta (Homo sapiens, UniProt Q14289);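 further: potency of inhibitors of PYK2 kinase phosphorylation of poly-GT substrate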
[22] = target: Cytochrome P450 2C9 (Homo sapiens, UniProt P11712)
[23] = target: Neuropeptide Y receptor type 1 (Homo sapiens, UniProt P25929); assay type: functional;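 further: HEK293 cells with a CNG channel challenged with NPY then isoproterenol; potency as antagonist that reverses NPY suppression of cAMP signal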
[24] = target: Neuropeptide Y receptor type 2 (Homo sapiens, UniProt P49146); assay type: functional, cell-based;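 further: HEK293 cells expressing the receptor and a CNG channel; stimulus was NPY near EC95 followed by isoproterenol to raise cAMP; antagonist potency measured as restoring cAMP signal that NPY suppresses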
[25] = target: T6, Protein skinhead-1 (Caenorhabditis elegans, UniProt P34707); assay type: functional
T6 sequence (P34707 whole entry): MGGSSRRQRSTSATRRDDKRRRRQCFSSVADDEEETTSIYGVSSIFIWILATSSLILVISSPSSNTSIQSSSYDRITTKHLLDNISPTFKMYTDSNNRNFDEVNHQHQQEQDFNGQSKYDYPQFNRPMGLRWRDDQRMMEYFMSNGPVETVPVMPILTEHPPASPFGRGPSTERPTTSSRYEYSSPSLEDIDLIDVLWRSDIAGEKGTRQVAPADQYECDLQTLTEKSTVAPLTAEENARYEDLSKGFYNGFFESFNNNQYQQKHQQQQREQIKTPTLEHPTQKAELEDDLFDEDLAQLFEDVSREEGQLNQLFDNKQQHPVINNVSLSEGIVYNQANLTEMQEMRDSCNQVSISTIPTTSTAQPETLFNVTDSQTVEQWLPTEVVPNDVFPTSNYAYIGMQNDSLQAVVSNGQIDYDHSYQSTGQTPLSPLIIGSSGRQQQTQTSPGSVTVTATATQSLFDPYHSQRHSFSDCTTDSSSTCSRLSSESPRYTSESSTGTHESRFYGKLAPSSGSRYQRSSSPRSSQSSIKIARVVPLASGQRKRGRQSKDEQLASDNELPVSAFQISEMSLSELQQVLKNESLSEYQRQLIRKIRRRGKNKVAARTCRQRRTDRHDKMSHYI

T3 sequence (Q00975 whole entry): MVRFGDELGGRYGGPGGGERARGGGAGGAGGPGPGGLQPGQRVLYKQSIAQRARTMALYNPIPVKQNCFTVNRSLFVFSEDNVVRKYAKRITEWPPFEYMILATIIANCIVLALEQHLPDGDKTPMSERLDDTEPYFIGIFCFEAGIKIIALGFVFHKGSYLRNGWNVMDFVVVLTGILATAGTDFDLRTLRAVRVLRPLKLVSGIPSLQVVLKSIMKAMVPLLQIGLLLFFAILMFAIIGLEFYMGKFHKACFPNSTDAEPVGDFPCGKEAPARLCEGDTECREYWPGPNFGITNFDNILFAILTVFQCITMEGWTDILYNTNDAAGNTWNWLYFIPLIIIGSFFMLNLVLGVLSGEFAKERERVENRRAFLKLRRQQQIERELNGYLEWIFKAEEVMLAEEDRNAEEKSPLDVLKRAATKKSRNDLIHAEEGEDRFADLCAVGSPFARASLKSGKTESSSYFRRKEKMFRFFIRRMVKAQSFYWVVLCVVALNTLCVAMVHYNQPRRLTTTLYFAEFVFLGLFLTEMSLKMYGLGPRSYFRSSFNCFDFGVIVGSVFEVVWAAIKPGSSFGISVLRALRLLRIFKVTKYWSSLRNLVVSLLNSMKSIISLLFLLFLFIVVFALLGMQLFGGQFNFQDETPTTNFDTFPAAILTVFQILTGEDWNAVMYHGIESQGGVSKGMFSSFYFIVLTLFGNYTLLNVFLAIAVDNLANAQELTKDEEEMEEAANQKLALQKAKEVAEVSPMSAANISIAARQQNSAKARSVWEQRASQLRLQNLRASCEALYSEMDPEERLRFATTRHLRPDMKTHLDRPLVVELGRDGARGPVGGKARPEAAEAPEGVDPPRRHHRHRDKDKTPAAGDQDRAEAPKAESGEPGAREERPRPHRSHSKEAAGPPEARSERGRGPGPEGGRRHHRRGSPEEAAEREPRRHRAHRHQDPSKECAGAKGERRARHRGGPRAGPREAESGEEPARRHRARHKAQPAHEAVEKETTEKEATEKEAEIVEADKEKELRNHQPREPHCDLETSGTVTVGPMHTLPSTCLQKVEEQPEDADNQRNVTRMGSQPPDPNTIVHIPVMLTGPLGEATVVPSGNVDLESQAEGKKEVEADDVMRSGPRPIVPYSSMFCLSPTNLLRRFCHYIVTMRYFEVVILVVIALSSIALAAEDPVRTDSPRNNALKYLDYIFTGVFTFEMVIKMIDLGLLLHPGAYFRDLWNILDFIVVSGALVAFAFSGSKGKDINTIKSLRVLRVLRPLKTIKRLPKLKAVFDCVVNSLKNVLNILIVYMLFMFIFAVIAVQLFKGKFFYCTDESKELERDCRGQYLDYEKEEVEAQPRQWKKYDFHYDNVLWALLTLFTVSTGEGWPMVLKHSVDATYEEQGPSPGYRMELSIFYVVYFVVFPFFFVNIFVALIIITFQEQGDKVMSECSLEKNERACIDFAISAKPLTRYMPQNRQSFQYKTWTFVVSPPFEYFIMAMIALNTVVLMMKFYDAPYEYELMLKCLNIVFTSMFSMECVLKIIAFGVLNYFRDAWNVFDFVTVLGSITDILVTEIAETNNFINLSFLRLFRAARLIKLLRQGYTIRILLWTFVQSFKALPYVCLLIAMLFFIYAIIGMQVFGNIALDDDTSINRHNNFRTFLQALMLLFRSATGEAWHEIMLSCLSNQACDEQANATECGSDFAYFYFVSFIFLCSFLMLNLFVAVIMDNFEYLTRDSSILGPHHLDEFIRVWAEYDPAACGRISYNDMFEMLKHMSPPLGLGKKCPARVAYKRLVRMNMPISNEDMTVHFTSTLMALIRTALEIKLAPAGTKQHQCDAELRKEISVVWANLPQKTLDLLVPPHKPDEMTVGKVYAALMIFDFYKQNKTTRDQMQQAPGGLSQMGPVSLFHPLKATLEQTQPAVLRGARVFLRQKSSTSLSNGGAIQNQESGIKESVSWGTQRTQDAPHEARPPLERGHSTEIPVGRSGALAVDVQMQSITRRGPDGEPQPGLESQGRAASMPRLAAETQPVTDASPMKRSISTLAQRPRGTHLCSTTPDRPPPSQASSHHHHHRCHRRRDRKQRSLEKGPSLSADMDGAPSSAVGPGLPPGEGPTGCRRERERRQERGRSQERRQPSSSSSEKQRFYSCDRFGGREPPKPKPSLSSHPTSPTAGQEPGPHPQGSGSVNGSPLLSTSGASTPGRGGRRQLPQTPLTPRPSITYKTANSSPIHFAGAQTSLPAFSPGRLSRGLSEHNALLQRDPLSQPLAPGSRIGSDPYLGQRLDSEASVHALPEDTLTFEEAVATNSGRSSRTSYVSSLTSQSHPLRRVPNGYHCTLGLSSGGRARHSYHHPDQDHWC
T3 sequence (Q02410 whole entry): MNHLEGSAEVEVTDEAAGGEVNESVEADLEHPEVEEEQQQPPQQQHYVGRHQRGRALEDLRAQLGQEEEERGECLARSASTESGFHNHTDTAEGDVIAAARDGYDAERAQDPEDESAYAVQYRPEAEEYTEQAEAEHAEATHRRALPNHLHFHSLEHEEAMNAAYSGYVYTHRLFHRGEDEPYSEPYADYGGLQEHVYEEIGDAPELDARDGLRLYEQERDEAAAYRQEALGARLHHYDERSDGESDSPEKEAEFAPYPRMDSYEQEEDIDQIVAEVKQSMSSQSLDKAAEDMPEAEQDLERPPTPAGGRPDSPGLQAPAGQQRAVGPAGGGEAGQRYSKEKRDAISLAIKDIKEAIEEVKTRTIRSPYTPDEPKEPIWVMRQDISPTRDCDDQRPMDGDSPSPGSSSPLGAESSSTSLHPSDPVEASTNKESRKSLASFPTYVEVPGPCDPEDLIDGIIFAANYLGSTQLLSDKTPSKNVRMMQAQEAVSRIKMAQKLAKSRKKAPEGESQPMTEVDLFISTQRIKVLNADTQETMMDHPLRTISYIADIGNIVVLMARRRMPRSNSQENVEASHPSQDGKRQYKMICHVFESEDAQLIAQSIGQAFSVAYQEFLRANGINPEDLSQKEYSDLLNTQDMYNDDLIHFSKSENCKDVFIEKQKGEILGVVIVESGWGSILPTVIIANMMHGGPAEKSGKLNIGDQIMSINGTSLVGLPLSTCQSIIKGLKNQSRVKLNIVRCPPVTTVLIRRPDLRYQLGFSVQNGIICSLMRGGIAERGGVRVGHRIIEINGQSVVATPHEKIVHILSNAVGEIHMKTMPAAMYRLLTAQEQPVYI
Sequence of Sphingosine 1-phosphate receptor 2 (O95136 whole entry): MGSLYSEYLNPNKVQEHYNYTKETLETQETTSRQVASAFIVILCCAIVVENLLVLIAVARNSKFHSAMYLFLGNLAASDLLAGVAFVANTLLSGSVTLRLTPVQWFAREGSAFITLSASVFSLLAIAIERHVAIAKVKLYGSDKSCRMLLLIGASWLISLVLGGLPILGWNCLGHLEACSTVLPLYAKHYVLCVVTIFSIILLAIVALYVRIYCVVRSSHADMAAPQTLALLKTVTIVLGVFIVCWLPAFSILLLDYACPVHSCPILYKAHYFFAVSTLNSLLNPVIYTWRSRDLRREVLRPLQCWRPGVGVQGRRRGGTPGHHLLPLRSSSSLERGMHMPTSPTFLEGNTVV
Sequence of Neuropeptide Y receptor type 1 (P25929 whole entry): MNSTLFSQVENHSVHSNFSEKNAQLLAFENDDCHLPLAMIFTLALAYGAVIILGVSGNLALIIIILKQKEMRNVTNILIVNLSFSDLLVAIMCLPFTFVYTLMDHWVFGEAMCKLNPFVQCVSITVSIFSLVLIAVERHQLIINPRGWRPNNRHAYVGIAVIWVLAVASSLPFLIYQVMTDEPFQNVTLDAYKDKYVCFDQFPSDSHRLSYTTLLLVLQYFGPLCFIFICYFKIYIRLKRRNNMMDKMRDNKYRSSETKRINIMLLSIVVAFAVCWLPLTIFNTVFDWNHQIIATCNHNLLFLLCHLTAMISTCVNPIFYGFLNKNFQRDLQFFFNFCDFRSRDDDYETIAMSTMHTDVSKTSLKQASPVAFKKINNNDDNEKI
Sequence of Cytochrome P450 2C9 (P11712 whole entry): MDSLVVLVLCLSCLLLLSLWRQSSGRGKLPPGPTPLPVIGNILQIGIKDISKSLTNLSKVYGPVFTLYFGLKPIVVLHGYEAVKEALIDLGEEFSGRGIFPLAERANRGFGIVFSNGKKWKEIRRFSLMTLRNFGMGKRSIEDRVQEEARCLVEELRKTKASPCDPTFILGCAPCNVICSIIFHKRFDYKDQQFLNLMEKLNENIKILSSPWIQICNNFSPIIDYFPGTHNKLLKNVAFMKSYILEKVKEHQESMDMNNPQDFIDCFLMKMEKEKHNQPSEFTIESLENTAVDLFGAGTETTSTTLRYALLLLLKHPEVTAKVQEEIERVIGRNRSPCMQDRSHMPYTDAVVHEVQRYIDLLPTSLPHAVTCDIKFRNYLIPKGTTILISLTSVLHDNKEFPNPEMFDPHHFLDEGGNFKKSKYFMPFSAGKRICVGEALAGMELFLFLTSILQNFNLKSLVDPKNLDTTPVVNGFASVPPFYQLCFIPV
Sequence of Glucose-6-phosphate 1-dehydrogenase (P11413 whole entry): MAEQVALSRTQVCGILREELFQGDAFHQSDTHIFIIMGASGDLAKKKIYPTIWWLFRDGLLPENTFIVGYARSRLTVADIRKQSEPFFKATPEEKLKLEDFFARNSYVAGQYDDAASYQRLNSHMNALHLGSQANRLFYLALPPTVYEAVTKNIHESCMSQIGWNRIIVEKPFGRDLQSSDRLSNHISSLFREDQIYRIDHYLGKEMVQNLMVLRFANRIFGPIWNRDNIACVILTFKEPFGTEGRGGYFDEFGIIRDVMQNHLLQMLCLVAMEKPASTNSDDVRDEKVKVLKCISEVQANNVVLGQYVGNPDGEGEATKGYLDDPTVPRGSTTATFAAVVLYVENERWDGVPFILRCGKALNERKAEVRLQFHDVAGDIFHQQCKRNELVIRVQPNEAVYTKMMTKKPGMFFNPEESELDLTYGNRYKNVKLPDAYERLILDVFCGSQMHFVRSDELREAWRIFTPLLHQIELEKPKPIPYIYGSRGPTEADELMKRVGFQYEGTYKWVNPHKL

In the case of `Cc1ccc(S(=O)(=O)N2CCCCCC2)cc1[N+](=O)[O-]`, the EC50 [1] is reported as 5.29 µM (active), the EC50 [2] is reported as > 29.9 µM (not active) and the IC50 [3] is reported as 18.3 µM (active). For the same molecule, the EC50 [4] was > 53 µM (inactive) and the IC50 [5] was > 20 µM (inactive).

For `O=C(Nc1nccs1)c1nc(-c2ccccc2)n(-c2ccccc2)n1`, the EC50 [6] was 18.6 µM (active).

In the case of `COc1ccc(N2CSC3=C(C#N)C(c4cc(OC)c(OC)cc4OC)CC(=O)N3C2)c(OC)c1` (stereo not given), the IC50 [7] is reported as 11.3 µM (active), the IC50 [8] is reported as 4.3 µM (active) and the IC50 [9] is reported as 42.3 µM (active). The IC50 [10] was 42.5 µM (inactive).

With `CC(=O)Nc1cccc(C(=O)/C=C/c2ccc(F)cc2)c1` the CC50 [11] was 20.6 µM (active).

With `CCCOc1cccc(C2C(C(=O)c3cc4ccccc4o3)=C(O)C(=O)N2c2cc(C)on2)c1` (stereo not given) the IC50 [12] was 44.5 µM (active) and the IC50 [13] was 32.6 µM (active).

With `Cc1cc(C(=O)CN2C(=O)NC(Cc3ccccc3)C2=O)c(C)n1Cc1ccccc1` (stereo not given) the EC50 [14] was > 30 µM (not active).

In the case of `Cc1ccc(C)c(S(=O)(=O)N2CCN(C(C)C(=O)Nc3ccccc3-c3ccccc3)CC2)c1` (stereo not given), the IC50 [15] is reported as 44.1 µM (active).

With `COc1cc(C2CC(=O)Oc3c(C(CCN4CCOCC4)c4ccc(N(C)C)cc4)c(OC)cc(OC)c32)cc(OC)c1OC` (stereo not given) the EC50 [16] was > 120 µM (not active).

With `COc1ccc(Cn2c(C)nc3c(c2=O)c2nc4ccccc4nc2n3Cc2ccco2)cc1` the IC50 [17] was 6.78 µM (active).

For `O=C(OCC(=O)N1CCN(C(=O)c2ccco2)CC1)c1cc(-c2cccc(Br)c2)nc2ccccc12`, the IC50 [18] was > 100 µM (active), the CC50 [19] was 14.4 µM (active) and the AC50 [20] was 4.25 µM (active).

With `COc1ccc(-c2coc3cc4oc(=O)cc(C)c4cc23)cc1F` the IC50 [21] was 12.5 µM (not active) and the AC50 [22] was 5.01 µM (inconclusive).

With `c1ccc(-c2nc(CSc3nnc(-c4cccs4)o3)cs2)cc1` the IC50 [23] was 12.8 µM (not active), the IC50 [24] was 17.3 µM (not active) and the IC50 [25] was > 100 µM (inactive).
